Non-standard residues stand in square brackets, D forms with d. Residues, ends and D or L forms follow the SMILES beside them.
tested on: B cell; experiment: Cytotoxicity screening of chemical probes in isolated B cell assay. Data is normalized to DMSO control, the cell viability average of replicates are reported. Reduction of ATP level more than 20% indicate compromised cell health status.; conditions: human, 0.1 µM

SMILES	Cell Viability [%]
O=C(O)[C@H]1[C@H](Cn2nnc3ccccc3c2=O)CC[C@@H]1C(=O)c1ccc(OCCC2CCOCC2)cc1 [BAY-7598]	98.8077
Cc1cc(Nc2nccc(C)n2)cc(-c2cnc([C@@]3(O)CC[C@H](C(=O)O)C(C)(C)C3)s2)c1 [MRL-SYKi]	97.9587
CCCOc1ccc([C@H]2[C@H](C(=O)O)[C@@H](c3ccc4c(c3)OCO4)CN2CC(=O)Nc2c(CC)cccc2CC)cc1 [A-192621]	97.3784
COCCOc1nc(-c2ccc(Cl)nc2)nc2c1CN(C(=O)c1ncn3ccccc13)CC2 [THPP-1]	97.9791
O=C(NCc1ncc(C(F)(F)F)cc1Cl)c1ccc2c(c1)C1(CCS(=O)(=O)CC1)[C@H](C1CC1)N2S(=O)(=O)c1ccc(F)cc1 [BAY-784]	98.8405
CCOC(=O)c1cc2cc(-c3cc(C(=O)NCc4ccc(C(=O)O)cc4)nn3C)ccc2[nH]1 [BI 4394]	99.7292

same assay, conditions: human, 1 µM

SMILES	Cell Viability [%]
CCCS(=O)(=O)c1nc(NC2CC2)cc(-c2ccc3c(ccn3C3CC(C)(C)NC(C)(C)C3)c2)n1	24.107
CNCc1ccccc1-c1csc([C@@H](C)Nc2nc(C)nc3cc(OC)c(OC)cc23)c1 [BAY-293]	78.8725
Cc1ccc(/C(=C\CN2CCCC2)c2ccccn2)cc1 [TRIPROLIDINE]	98.8273
Cn1nc(C(F)(F)F)cc1-c1cnc(N2CCc3cc(S(=O)(=O)Nc4c(F)cc(Cl)cc4F)cc(N4CCCC4=O)c32)nc1 [TP-020]	96.7008
COc1cc2c(cc1NS(=O)(=O)c1ccc(Br)cc1C)n(C)c(=O)n2C	96.0295
Clc1cc2c(NC3CCCC3)nnc(-c3ccncc3)c2cc1Cl	99.0979
CCOCCn1cc(C(=O)Nc2ccc(-n3nc(-c4cccnc4)cc3C(F)(F)F)cn2)ccc1=O [BI 1935]	94.8333
c1cc(OCCCN2CCCCC2)ccc1CN1CCCCC1 [JNJ-5207852]	101.482
CCOc1nc2cccc(C(=O)O)c2n1Cc1ccc(-c2ccccc2-c2nnn[nH]2)cc1	101.389
COc1ccc2c(O[C@@H]3C[C@H]4C(=O)N[C@]5(C(=O)O)CC5/C=C\CCCCC[C@H](NC(=O)OC5CCCC5)C(=O)N4C3)cc(-c3csc(NC(=O)C(C)C)n3)nc2c1C (stereo not given in full) [BI 1230]	99.1645
O=c1nc(-c2ccccn2)sc2ccccc12 [BTZO-1]	96.3183
COCCn1c(C)c(C)s/c1=N\C(=O)C1C(C)(C)C1(C)C	97.5131
CN(C)C(=O)c1ccc(-c2cc(C(=O)N[C@@H]3CCc4ccccc43)no2)cc1O	97.9607
O=C(/C=C/N1C[C@H]2C[C@@H]1CN2c1ccccn1)c1ccccc1O	91.7355
COc1cc2c(cc1OCCCN1CCCC1)N=C(N)C21CCC1	98.8274
CCCCN(CCCC)C(=O)CN1C[C@@H](c2cc(OC)c3c(c2)OCO3)[C@H](C(=O)O)[C@H]1CC(C)(C)CCC.Cl	89.8179
CC[C@H]1OC(=O)[C@H](C)[C@@H](O[C@H]2C[C@@](C)(OC)[C@@H](O)[C@H](C)O2)[C@H](C)[C@@H](O[C@@H]2O[C@H](C)C[C@H](N(C)C)[C@H]2O)[C@@]2(C)CC(C)=C(O2)[C@H](C)[C@@H](O)[C@]1(C)O	98.1033
O=C(NC[C@H](O)CN1CCc2ccccc2C1)c1ccnc(NC2CCC2)c1	91.5741
CC1(C)[C@H]2C[C@H](C/C=C\CCCC(=O)O)[C@@H](NC(=O)c3csc4ccc(O)cc34)[C@@H]1C2	100.906

SMILES	Cell Viability [%]
CC(C)N(CCCCOCC(=O)NS(C)(=O)=O)c1cnc(-c2ccccc2)c(-c2ccccc2)n1 [SELEXIPAG]	99.3334
C[C@@H](O[C@H]1OCCN(Cc2n[nH]c(=O)[nH]2)[C@H]1c1ccc(F)cc1)c1cc(C(F)(F)F)cc(C(F)(F)F)c1 [APREPITANT]	101.584
CN1CCN(C(=O)C(C)(C)c2ccc(C(=O)Nc3cn4cc(-c5ccncc5)ccc4n3)cc2)CC1 [T3-CLK]	73.6988
C[C@H](NC(=O)c1cnc2n1[C@](C)(Cc1ccc(C#N)cc1)C(=O)N2c1cc(Cl)c(F)c(Cl)c1)C(=O)NC1(c2ccccn2)CC1 [BI 1950]	96.273
Cl.O=C([C@@H](Cc1cccc(C(F)(F)F)c1)NS(=O)(=O)c1cc(F)c2c(c1)CCNC2)N1CCCC1	98.8503
Cn1cnc2c(F)c(Nc3ccc(Br)cc3Cl)c(C(=O)NOCCO)cc21 [SELUMETINIB]	92.6054
CCCc1cc(C)[nH]c(=O)c1CNC(=O)c1cc(-c2ccc(N3CCN(C(C)C)CC3)nc2)cc2c1cnn2C(C)C	96.021
CC(C)C[C@@H]1NC(=O)[C@@H](C(C)C)NC(=O)[C@@H]2CCCN2C(=O)[C@@H](CC(=O)O)NC(=O)[C@@H](Cc2c[nH]c3ccccc23)NC1=O [BQ-123] (cyclo(L[dW][dD]P[dV]))	98.787
COc1ccncc1C(=O)NC(=O)Nc1ccc(-c2ccccc2)c(C(F)(F)F)c1	100.618
C[C@@H](c1cccc(CN)c1)n1cc(Cl)cc(C(N)=O)c1=N.Cl	100.561
CC(=O)C1=C(C)N(c2cccc(C(F)(F)F)c2)C(=O)N[C@@H]1c1ccc(C#N)nc1 [BAY-678]	97.287
O=C(NCCCN1CCOC1=O)c1cnc(NCc2cc(Br)ccc2Br)nc1NC1CCCC1	100.266
Cc1cccc(-c2cnc3occ(-c4ccc(C(=O)O)c(C5CCCC5)c4)c3c2)c1	94.5514
CC(C)N(CCCNC(=O)Nc1ccc(C(C)(C)C)cc1)C[C@H]1O[C@@H](n2cc(Br)c3c(N)ncnc32)[C@H](O)[C@@H]1O	95.9292
Cc1cc2c(-c3ccco3)cnc(N[C@@H]3CCN(C)C[C@H]3C(=O)NC3CCCCC3)c2[nH]c1=O [GSK789]	93.8199
NS(=O)(=O)c1cc(NC(=O)Cc2ccccc2)ccc1Oc1cccc(Cl)c1 [BAY-1797]	95.6935
Cl.O=c1c2cccn2c2ccccc2n1CCCN1CCC(c2ccc(Cl)cc2)CC1	96.0052
Clc1cccc(-c2nnnn2Cc2cccnc2)c1Cl	97.1983
Cl.O=C(O)c1cc(-c2ccc(C3CCNCC3)cc2)c2ccc(-c3ccc(C(F)(F)F)cc3)cc2c1	98.0873

same assay, conditions: human, 2 µM

SMILES	Cell Viability [%]
CS(=O)(=O)c1cc(C2(NC(=O)c3cncc4c3cnn4-c3ccc(F)cc3)CC2)ccn1 [BI 639667]	99.2983

From ChEMBL document CHEMBL5724562, “Toxicity screen in isolated B cell assay results for EUbOPEN Chemogenomics Library” (2024)
